Assay results from paper PMC5834442, “Identifying inhibitors of the Leishmania inositol phosphorylceramide synthase with antiprotozoal activity using a yeast-based assay and ultra-high throughput screening platform” (Scientific Reports, 2018).

tested on: L. donovani (MHOM/SD/62/1S-CL2D, LdBOB) axenic amastigotes; experiment: Leishmania donovani axenic amastigote dose response assay (resazurin); type: cell-based; details: -logIC50 mol against L. donovani (LdBOB) axenic amastigotes, read-out: pIC50 Axenic (converted)

Row | SMILES | IC50
1 | Cc1[nH]c2ccccc2c(=O)c1Cc1ccc(OC(F)(F)F)cc1 [4598W 92C*A] | 1.55 µM
2 | Cc1[nH]c2ccccc2c(=O)c1Cc1ccc(C(F)(F)F)cc1 [4671W 92C*A] | 1.17 µM
3 | COc1ccc(N(Cc2ccc(-c3ccccc3)o2)S(=O)(=O)c2ccccn2)cc1 [AD102638-200A3B22] | 5.89 µM
4 | COc1ccc(Cl)cc1NC(=O)Nc1cccc(Br)c1 [C2180/12/1] | 4.79 µM
5 | OC(Cn1ccnc1)(c1ccc(Cl)cc1Cl)C1CCCCC1 (centres unmarked) [CJL/479/3] | 5.75 µM
6 | O=S(=O)(Nc1cccc(F)c1CN1CCC(F)(F)C1)c1ccc(Cl)c(Cl)c1 [DS105792-004A6B1] | 9.12 µM
7 | Cc1ccc(-c2cnc(N)c(-c3nc4ccc(F)cc4[nH]3)c2)cc1 [HL209813-065A1] | 7.59 µM
8 | Cc1nc(-c2ccccc2)c(-c2ccnc(Nc3cc(S(N)(=O)=O)ccc3C)n2)s1 [N6896-93-B1] | 1.55 µM
9 | CNS(=O)(=O)c1ccc(C)c(Nc2nccc(-c3sc(C)nc3-c3ccccc3)n2)c1 [N6896-96-B1] | 0.661 µM
10 | C=CCOc1ccc(-c2nc(-c3ccc4c(c3)CCNCC4)no2)cc1Cl.Cl [N11110-83-1] | 7.94 µM
11 | O=C(Nc1cc(C(F)(F)F)ccc1Cl)c1ccccc1O [SC/67526] | 5.25 µM
12 | O=C(Nc1cccc(Cl)c1)Nc1ccc2nnsc2c1 [SC/98031] | 6.61 µM
13 | Oc1ccc(-c2nccc(-c3ccc(Cl)cc3)n2)cc1 [SC/101464] | 2.75 µM
14 | Cc1cc([N+](=O)[O-])ccc1NC(=O)Nc1cccc(F)c1 [SC/109683] | 3.8 µM
15 | Cc1ccc(-c2ccnc(-c3ccc(O)cc3)n2)cc1 [SC/128042] | 6.61 µM
16 | Cc1ccc(S(=O)(=O)Nc2cc(Cl)c(Cl)cc2Cl)cc1 [ST/411835] | 7.08 µM
17 | O=C(c1cccc(F)c1)c1coc2ccc(Br)cc2c1=O [ST/472875] | 2.29 µM
18 | Cc1cc(C)n2nc(S(=O)(=O)Nc3c(Cl)cccc3Cl)nc2n1 [ST/833860] | 41.7 µM
19 | Cc1cc(O)c(Cl)c(C)c1NS(=O)(=O)c1ccc(Br)cc1 [ST/835722] | 26.9 µM
20 | Brc1ccc(OCc2nc3ccccc3[nH]2)cc1 [ST/839801] | 49 µM
21 | CSc1ccccc1NS(=O)(=O)c1cccs1 [ST/867134] | > 50 µM
22 | Cc1ccc(O)c(NC(=O)c2cccc(Br)c2)c1 [ST/867278] | 21.9 µM
23 | O=C(Nc1cc(Cl)c(O)c(Cl)c1)c1ccc(Br)cc1 [ST/869684] | 17.8 µM
24 | Cc1cc(-c2nc3cc(Cl)ccc3o2)ccc1N [ST/880430] | 26.9 µM
25 | C=CCNc1nc(N)c([N+](=O)[O-])c(Nc2cccc(F)c2)n1 [ST/892571] | > 50 µM

Row | SMILES | IC50
26 | CSc1nsc(NC(=O)Nc2ccc(Cl)cc2)n1 [ST/905433] | 30.2 µM
27 | O=S(=O)(Nc1cccc(Cl)c1Cl)c1cccs1 [ST/906545] | 21.4 µM
28 | CCOc1cc(S(=O)(=O)N2CCN(Cc3ccc4c(c3)OCO4)CC2)ccc1Br [ST/910382] | 21.4 µM
29 | O=c1nc(SCc2ccccc2F)c2c([nH]1)CCCC2 [ST/915519] | > 50 µM
30 | CNS(=O)(=O)c1ccc(NC(=O)c2csc(C)c2-c2ccccc2)cc1 [ST/937316] | 38.9 µM
31 | Fc1ccc(CNc2ncc(-c3ccncc3)c(-c3ccoc3)n2)cc1 [ST/945994] | > 50 µM
32 | CN1CCN(CC(=O)Nc2ccc3c(c2)CCC3)CC1c1ccccc1 (centres unmarked) [ST/961462] | > 50 µM
33 | CN1CCN(CC(=O)Nc2ccc(C(F)(F)F)cc2)CC1c1ccccc1 (centres unmarked) [ST/961463] | > 50 µM
34 | O=C(O)Cc1c(-c2cccs2)nc2ccccc2c1-c1ccccc1 [ST/1080669] | 12.9 µM
35 | O=C(Nc1ccon1)c1cc2c(s1)CCCCCC2 [ST/1100321] | 19.5 µM
36 | CCCCCc1c(C)nc(Nc2ccccc2)[nH]c1=O [ST/1105254] | 17.4 µM
37 | COc1ccc(Br)cc1C(=O)Nc1cc(Cl)ccc1O [ST/1108634] | 16.6 µM
38 | CCc1noc2nc(C)nc(NC3CCCCCC3)c12 [ST/1113587] | 46.8 µM
39 | O=C(Nc1ccc(NC(=O)c2cccs2)cc1Cl)c1ccccc1 [ST/1125044] | > 50 µM
40 | Cc1cccn2c(=O)c(C(=O)NCc3ccncc3)c(O)nc12 [ST/1129403] | > 50 µM
41 | COCC(C)NC(=O)c1c(O)nc2c(C)cccn2c1=O (centres unmarked) [ST/1131522] | > 50 µM
42 | CCc1ccccc1Oc1cncc(-c2nc3ccccc3[nH]2)n1 [ST/1138848] | > 50 µM
43 | Cc1cccc(C(=O)Nc2nc(-c3cccs3)ns2)c1 [ST/1197585] | 30.9 µM
44 | COc1cccc(C(=O)Nc2nc(-c3cccs3)ns2)c1 [ST/1197587] | 21.9 µM
45 | O=C(NCc1ccc2c(c1)OCO2)c1ccccc1NS(=O)(=O)c1cccs1 [ST/1217724] | 11.5 µM
46 | NC(=O)c1cc(-c2csc(-c3ccsc3)n2)ccc1O [ST/1241904] | 20.9 µM
47 | CNC(=O)CN(C)c1nc(-c2cccs2)nc2sc(C)c(C)c12 [ST/1245806] | > 50 µM
48 | Cc1oc(-c2ccc(Cl)cc2)cc1C(=O)NCC(=O)c1cccs1 [ST/1260077] | 34.7 µM
49 | COc1ccccc1-c1nc(-c2ccc(O)c(C(N)=O)c2)cs1 [ST/1261284] | 33.1 µM
50 | O=c1nc(SCc2ccccc2Cl)c2c([nH]1)CCCC2 [ST/1287093] | > 50 µM

Row | SMILES | IC50
51 | CCOc1ccc(C(C)C)cc1S(=O)(=O)n1ccnc1 [ST/1289929] | 10.5 µM
52 | Cc1ccccc1S(=O)(=O)N1CCN(c2nccc(-c3cccs3)n2)CC1 [ST/1415177] | 21.9 µM
53 | O=S(=O)(c1ccccc1)N1CCN(c2nccc(-c3cccs3)n2)CC1 [ST/1415180] | 39.8 µM
54 | O=C(Nc1ccc(F)c(Cl)c1)c1cc(-c2ccc(O)cc2)on1 [ST/1440432] | 10.5 µM
55 | CC(=O)N1N=C(COc2ccccc2Br)OC1C=Cc1ccccc1 (centres unmarked) [ST/1451035] | > 50 µM
56 | CC(=O)N1N=C(COc2ccc(Cl)c(C)c2)OC1c1ccc(C)o1 (centres unmarked) [ST/1451045] | 19.1 µM
57 | CC(=O)N1N=C(c2ccccc2Cl)OC1COc1ccc(Cl)cc1 (centres unmarked) [ST/1451125] | 15.8 µM
58 | N#Cc1ccc(NCCOc2ccc3ccccc3c2)nc1 [ST/1543199] | > 50 µM
59 | O=C1CCc2cc(-c3csc(-c4ccsc4)n3)ccc2N1 [ST/1544102] | > 50 µM
60 | CCc1ccccc1NC(=O)c1cc(-c2ccc(Cl)cc2)oc1C [ST/1545686] | > 50 µM
61 | Cc1ccc(Nc2nc(C(N)=O)c(NC(=O)C3CCC3)s2)cc1 [ST/1548033] | > 50 µM
62 | CCn1cc(C(=O)O)c(=O)c2cc(F)ccc21 [ST/1766829] | 24.5 µM
63 | c1ccc2oc(-c3ccnc4nncn34)cc2c1 [ST/1803771] | > 50 µM
64 | N=c1nc2n(c(=N)[nH]1)NC(c1ccc(Cl)cc1)=CS2 [ST/1850161] | 47.9 µM
65 | O=C(c1ccc(Cl)cc1)N1CCCn2c1nc1ccccc1c2=O [ST/1938375] | > 50 µM
66 | CC(NC(=O)c1c(O)c2sccc2[nH]c1=O)c1ccc(F)cc1 (centres unmarked) [ST/1962332] | > 50 µM
67 | O=c1c(O)c(-c2ccccc2)oc2cc(O)cc(O)c12 [ST/2097267] | 20.4 µM
68 | O[C@@]1(c2ccc(F)cc2)CCCC[C@@H]1n1cncn1 [ST/2183803] | > 50 µM
69 | CCc1ccc2c(c1)c(=O)c(C(=O)O)cn2CC(F)(F)F [ST/2184718] | 36.3 µM
70 | Fc1ccc(-c2nn3c(OCC(F)(F)F)cccc3c2-c2ccncc2)cc1 [U12546/102/3] | 13.5 µM
71 | Nc1ncc(-c2ccccc2)cc1-c1nc2ccccc2[nH]1 [U18123/163/3] | 37.2 µM
72 | Cc1ccc(C2=NN(S(=O)(=O)c3cc(Cl)sc3Cl)C(C)C2)cc1 (centres unmarked) [U20197/52/63] | 32.4 µM
73 | Cc1ccc(C2=NN(S(=O)(=O)c3ccc(Cl)cc3F)C(C)C2)cc1 (centres unmarked) [U20197/52/94] | > 50 µM

tested on: HepG2 cells; experiment: Mammalian cell cytotoxicity assay (CellTiter-Glo); type: cell-based, human; details: not given

Row | SMILES | pSI v HepG2
74 | Cc1cc([N+](=O)[O-])ccc1NC(=O)Nc1cccc(F)c1 [SC/109683] | 0.54

same assay, conditions: Homo sapiens; -logIC50 mol against HepG2; read-out: PIC50 HepG2 (converted)

Row | SMILES | IC50
75 | Cc1[nH]c2ccccc2c(=O)c1Cc1ccc(OC(F)(F)F)cc1 [4598W 92C*A] | 95.5 µM
76 | Cc1[nH]c2ccccc2c(=O)c1Cc1ccc(C(F)(F)F)cc1 [4671W 92C*A] | > 100 µM
77 | COc1ccc(N(Cc2ccc(-c3ccccc3)o2)S(=O)(=O)c2ccccn2)cc1 [AD102638-200A3B22] | 61.7 µM
78 | COc1ccc(Cl)cc1NC(=O)Nc1cccc(Br)c1 [C2180/12/1] | 66.1 µM
79 | OC(Cn1ccnc1)(c1ccc(Cl)cc1Cl)C1CCCCC1 (centres unmarked) [CJL/479/3] | 45.7 µM
80 | O=S(=O)(Nc1cccc(F)c1CN1CCC(F)(F)C1)c1ccc(Cl)c(Cl)c1 [DS105792-004A6B1] | 47.9 µM
81 | Cc1ccc(-c2cnc(N)c(-c3nc4ccc(F)cc4[nH]3)c2)cc1 [HL209813-065A1] | 75.9 µM
82 | Cc1nc(-c2ccccc2)c(-c2ccnc(Nc3cc(S(N)(=O)=O)ccc3C)n2)s1 [N6896-93-B1] | > 100 µM
83 | CNS(=O)(=O)c1ccc(C)c(Nc2nccc(-c3sc(C)nc3-c3ccccc3)n2)c1 [N6896-96-B1] | 38 µM
84 | C=CCOc1ccc(-c2nc(-c3ccc4c(c3)CCNCC4)no2)cc1Cl.Cl [N11110-83-1] | 4.37 µM
85 | O=C(Nc1cc(C(F)(F)F)ccc1Cl)c1ccccc1O [SC/67526] | 15.1 µM
86 | O=C(Nc1cccc(Cl)c1)Nc1ccc2nnsc2c1 [SC/98031] | 17.8 µM
87 | Oc1ccc(-c2nccc(-c3ccc(Cl)cc3)n2)cc1 [SC/101464] | > 100 µM
88 | Cc1cc([N+](=O)[O-])ccc1NC(=O)Nc1cccc(F)c1 [SC/109683] | 13.2 µM
89 | Cc1ccc(-c2ccnc(-c3ccc(O)cc3)n2)cc1 [SC/128042] | > 100 µM
90 | Cc1ccc(S(=O)(=O)Nc2cc(Cl)c(Cl)cc2Cl)cc1 [ST/411835] | > 100 µM
91 | O=C(c1cccc(F)c1)c1coc2ccc(Br)cc2c1=O [ST/472875] | 63.1 µM

same assay, conditions: selectivity: pIC50 axenic minus pIC50 HepG2

Row | SMILES | pSI v HepG2
92 | Cc1[nH]c2ccccc2c(=O)c1Cc1ccc(OC(F)(F)F)cc1 [4598W 92C*A] | 1.79
93 | Cc1[nH]c2ccccc2c(=O)c1Cc1ccc(C(F)(F)F)cc1 [4671W 92C*A] | 1.93
94 | COc1ccc(N(Cc2ccc(-c3ccccc3)o2)S(=O)(=O)c2ccccn2)cc1 [AD102638-200A3B22] | 1.02
95 | COc1ccc(Cl)cc1NC(=O)Nc1cccc(Br)c1 [C2180/12/1] | 1.14
96 | OC(Cn1ccnc1)(c1ccc(Cl)cc1Cl)C1CCCCC1 (centres unmarked) [CJL/479/3] | 0.90
97 | O=S(=O)(Nc1cccc(F)c1CN1CCC(F)(F)C1)c1ccc(Cl)c(Cl)c1 [DS105792-004A6B1] | 0.72
98 | Cc1ccc(-c2cnc(N)c(-c3nc4ccc(F)cc4[nH]3)c2)cc1 [HL209813-065A1] | 1.00
99 | Cc1nc(-c2ccccc2)c(-c2ccnc(Nc3cc(S(N)(=O)=O)ccc3C)n2)s1 [N6896-93-B1] | 1.81
100 | CNS(=O)(=O)c1ccc(C)c(Nc2nccc(-c3sc(C)nc3-c3ccccc3)n2)c1 [N6896-96-B1] | 1.76
101 | C=CCOc1ccc(-c2nc(-c3ccc4c(c3)CCNCC4)no2)cc1Cl.Cl [N11110-83-1] | -0.26
102 | O=C(Nc1cc(C(F)(F)F)ccc1Cl)c1ccccc1O [SC/67526] | 0.46
103 | O=C(Nc1cccc(Cl)c1)Nc1ccc2nnsc2c1 [SC/98031] | 0.43
104 | Oc1ccc(-c2nccc(-c3ccc(Cl)cc3)n2)cc1 [SC/101464] | 1.56
105 | Cc1ccc(-c2ccnc(-c3ccc(O)cc3)n2)cc1 [SC/128042] | 1.18
106 | Cc1ccc(S(=O)(=O)Nc2cc(Cl)c(Cl)cc2Cl)cc1 [ST/411835] | 1.15
107 | O=C(c1cccc(F)c1)c1coc2ccc(Br)cc2c1=O [ST/472875] | 1.44
